Experimental data: patent publication US5731432A, “Inhibitors of adenosine monophosphate deaminase” (priority 1994, dated 1998)
Where two headings read alike, the source gives them in different places.

Legend:
[1] = tested on: Neutrophil-myocyte adhesion; test: Inhibition of Neutrophil-Myocyte Adhesion (Example C); format: cell-based; details: read-out: Neutrophil-Myocyte Adhesion Inhibition IC50
Method: Isolated neutrophils and myocytes were stimulated with the cytokine, TNF-α, and incubated in the presence of the test compound. Neutrophil-myocyte adhesion was determined as described by […], et al., J. Clin. Invest.

[2] = molecular target: T1, adenosine deaminase (ADA) from calf intestinal mucosa (Bos taurus, UniProt P56658); test: Adenosine Deaminase Assay (Example B); format: biochemical
T1 construct: adenosine deaminase (ADA) from calf intestinal mucosa; from tissue; host or cells: calf intestinal mucosa
T1 sequence (P56658 1-363): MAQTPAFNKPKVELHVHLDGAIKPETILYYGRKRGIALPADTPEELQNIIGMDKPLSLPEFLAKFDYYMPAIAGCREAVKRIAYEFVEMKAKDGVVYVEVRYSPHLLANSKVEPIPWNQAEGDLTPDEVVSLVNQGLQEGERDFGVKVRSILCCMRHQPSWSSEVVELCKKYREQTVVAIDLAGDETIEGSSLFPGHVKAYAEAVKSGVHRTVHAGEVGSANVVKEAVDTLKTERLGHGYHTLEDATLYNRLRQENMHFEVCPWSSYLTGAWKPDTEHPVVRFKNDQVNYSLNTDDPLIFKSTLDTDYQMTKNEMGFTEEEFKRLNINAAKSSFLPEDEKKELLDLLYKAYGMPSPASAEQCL
Method: Inhibition of adenosine deaminase (ADA) from calf intestinal mucosa was determined spectrophotometrically at pH 7.0 using one of the following two assays:
(1) Direct Assay: The reaction system mixture contained inhibitor, ~0.001 units ADA, and 40 mM potassium phosphate in 1 ml and at 37° C. The concentration of the substrate adenosine was varied from 20 to 100 μM.
The reaction was initiated by addition of adenosine and monitored continuously at 340 nm for 7 minutes as the decrease in absorbance reflects oxidation of NADH.

[3] = molecular target: AMPDA activity from porcine heart; test: AMP Deaminase Assay (Example A); format: biochemical; details: for Ki: porcine heart AMPDA, 37° C., pH 6.5, competitive inhibition assumed; for Selectivity Ratio: selectivity ratio=[ADA Ki/Km]/[AMPDA Ki/Km], K = 1,000
Method: Catalysis was initiated by the addition of enzyme to the otherwise complete reaction mixture, and terminated after 5 minutes by injection into an HPLC system. Activities were determined from the amount of IMP formed during 5 minutes.

[4] = molecular target: T2, ADA (Homo sapiens, UniProt P00813); details: reported; kind of constant not stated; cited from earlier work
T2 sequence (P00813 1-363): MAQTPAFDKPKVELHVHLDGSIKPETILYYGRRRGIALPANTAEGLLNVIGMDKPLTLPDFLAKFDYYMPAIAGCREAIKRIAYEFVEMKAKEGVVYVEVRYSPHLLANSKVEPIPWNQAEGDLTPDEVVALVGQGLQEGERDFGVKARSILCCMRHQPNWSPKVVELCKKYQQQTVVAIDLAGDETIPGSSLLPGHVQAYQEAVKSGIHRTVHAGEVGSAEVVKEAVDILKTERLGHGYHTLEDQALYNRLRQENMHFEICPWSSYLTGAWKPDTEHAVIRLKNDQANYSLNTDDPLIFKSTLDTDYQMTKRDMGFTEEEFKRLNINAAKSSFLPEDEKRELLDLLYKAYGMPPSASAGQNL

[5] = tested on: AMPDA; details: reported; kind of constant not stated; cited from earlier work
[6] = tested on: isolated rat hearts; test: Functional recovery in isolated rat heart model of ischemia-reperfusion injury (Example D); details: low flow ischemia then 30 minutes reperfusion
Method: The ability of AMP deaminase inhibitors of the present invention to improve the recovery of post-ischemic function was examined in an isolated rat heart model of ischemia-reperfusion injury.
Isolated rat hearts were cannulated via the ascending aorta and attached to a perfusion apparatus according to the method of Langendorff. The hearts were perfused at a constant pressure of 100 cm of H2 O with a modified Krebs-Hanseleit buffer (pH 7.4) at 37° C. Left ventricular developed pressures (LVDP) were monitored continuously using a latex balloon attached to a pressure transducer. Coronary flows were measured gravimetrically by timed collection of pulmonary effluent. Following equilibration of the hearts for a period of 30 minutes, the hearts were subjected to […] of low flow ischemia, by reducing the perfusion pressure to 10 cm of H2 O, and then reperfused for 30 minutes by restoring the pressure to its original level (100 cm of H2 O). […] Compound 1 m provided recovery of LVDP to 83±2% compared to the placebo value of 65±2% when added to the perfusion to give a concentration of 0.3 μM.

[7] = tested on: Rat Focal Stroke Model; test: Rat model of ischemic brain injury / focal stroke (Example F); format: in vivo
Source text: Each rat is anesthetized with halothane and placed on a heating pad hooked up to a temperature regulator and connected to rectal probe. EEG electrodes are then inserted into the temporalis muscle bilaterally in between the eye and the ear. A midline incision is made to expose the left Common Carotid Artery (CCA). The internal Carotid Artery (ICA)is isolated and carefully separated from the adjacent vagus nerve. Following ligation of various vessels the ICA should be the only remaining extracranial branch of the CCA. Two 5-0 silk sutures are tied loosely around the external carotid artery (ECA)and microvascular clips placed on both the CCA (proximal to the bifurcation)and the ICA (in between the first and the second bifurcation). The ECA above the bifurcation is coagulated and the two sutures are then cut below the coagulation. A 25 mm length 4-0 nylon suture, its tip rounded by heating near a fine tipped cauterizer, is introduced into the ECA lumen. 20-22 mm of the suture is inserted into the ECA stump. The suture around the ECA is tightened to hold the occluding suture in place and EEC reading is checked to confirm occlusion by the appearance of a flat line. At this point the intraluminal suture has blocked the origin of the […] (MCA), occluding all sources of blood flow from the interior Carotid Artery (ICA), the […] (ACA), and the posterior cerebral artery (PCA). At 105 min later the suture is gently retracted under halothane anesthesia to allow blood flow back into the middle cerebral artery. The neck incision is closed and animals allowed to recover from anesthesia. At 24 hrs animals are evaluated for behavioral deficits, sacrificed, transcardial perfused, brains removed and TTC stained for visualization of infarcted region using a computer assisted system.
The application of compound 1d is shown in the time line diagram. Thirty minutes prior to induction of ischemia (SUTURE IN) Compound 1d in isotonic saline solution was infused for 15 min at a loading dose of 250 μg/kg/min (50 μl/min)followed by maintenance rate of 50 μg/kg/min for the remaining 12 hrs.

[8] = neutrophils and myocytes stimulated with TNF-α
[9] = calf intestinal mucosa ADA, pH 7.0, read-out: ADA Ki
[10] = Treated, Post reperfusion, mean ± sem

SMILES | IC50 [1, 8] [µM] | Ki [2, 9] [µM] | Ki [3] [µM] | Selectivity Ratio [3] | also measured
Cc1ccccc1CCCn1cnc2c1N=CNCC2O (stereo not shown) [compound 1f, 3-(3'-(2"-methylphenyl)propyl)coformycin aglycone] | 1.4 ± 0.45 | 0.042 | 2.1 | 0.34 | –
[N-]=[N+]=NC1CNC=Nc2c1ncn2CCCc1ccccc1 (stereo not shown) [compound 1h] | – | 0.063 | 6.6 | 0.16 | –
CC(C)=CCC[C@H](C)CCn1cnc2c1N=CNCC2O (stereo partly drawn) [compound 1c, (3'S)-3-(3',7'-dimethyloct-6'-enyl)coformycin aglycone] | 5.1 ± 2.5 | 1.9 | 1.1 | 29 | –
CC1(C)[C@H]2CC[C@H](Cn3cnc4c3N=CNCC4O)[C@@H]1C2 (stereo partly drawn) [compound 1e, (l'S,2'S,5'S)-3-(6',6'-dimethyl[3,1,1]-bicyclohept-2'-methyl)coformycin aglycone] | 24 ± 3 | > 160 | 1.7 | > 1.6K | –
O=C(O)C(CCCCn1cnc2c1N=CNCC2O)C(=O)OCc1ccccc1 (stereo not shown) [compound 1k, 3-(5'-carboxy-5'-carbobenzyloxypentyl)coformycin aglycone] | – | > 1000 | 0.36 | > 47K | –
O=C(O)c1cc(CCn2cnc3c2N=CNCC3O)cs1 (stereo not shown) [compound 1o, 3-(2'-(2"-carboxythiophen-4"-yl)ethyl)coformycin aglycone] | 8 ± 2 | > 6 | 2.2 | 590 | –
OC[C@H]1O[C@@H](n2cnc3c2N=CNC[C@H]3O)[C@H](O)[C@@H]1O [Coformycin, coformycin] | – | – | – | – | inhibition of ADA [4]: < 0.2 nM; inhibition of AMPDA [5]: 1000 nM
CCCCCCCn1cnc2c1N=CNCC2O (stereo not shown) [compound 1a, 3-heptylcoformycin aglycone] | – | 0.35 | 10 | – | recovery of LVDP ([6]; 3 μM in perfusion, placebo 69±1%): 83±3%; IC50 [1]: 12 ± 6 µM
Cc1ccc(C(=O)O)cc1CCn1cnc2c1N=CNCC2O (stereo not shown) [compound 1m, 3-(2'-(3"-carboxy-6"-methylphenyl)ethyl)coformycin aglycone] | – | > 1000 | 0.097 | > 175K | recovery of LVDP ([6]; 0.3 μM in perfusion, placebo 65±2%): 83±2%; IC50 [1]: 0.03 ± 0.01 µM
Cc1ccc(-c2nn[nH]n2)cc1CCn1cnc2c1N=CNCC2O (stereo not shown) [compound 1n, 3-(2'-(6"-methyl-3"-(tetrazol-5'"-yl)phenyl)ethyl)coformycin aglycone] | – | – | 1.6 | > 2.1K | Ki [2]: > 200 µM
CC(CCCCn1cnc2c1N=CNCC2O)(C(=O)O)C(=O)NCc1ccccc1 (stereo not shown) [compound 1l, 3-(5'-carbox-N-benzylamido-5'-carboxyhexyl)coformycin aglycone] | – | > 1000 | 2.7 | > 6.3K | –
OC1CNC=Nc2c1ncn2C1CCCCCC1 (stereo not shown) [compound 1d, 3-cycloheptylcoformycin aglycone] | 4.3 ± 1.3 | 7.9 | 8 | 17 | Blood Pressure [7, 10]: 115 ± 4 mm Hg; Temperature [7, 10]: 38.6 ± 0.2 °C; Blood Pressure ([7]; Treated, Pre, mean ± sem): 102 ± 5 mm Hg; Temperature ([7]; Treated, T = 0, mean ± sem): 37.4 ± 0.2 °C; Blood Pressure ([7]; Treated, T = 60, mean ± sem): 84 ± 9 mm Hg; Temperature ([7]; Treated, T = 60, mean ± sem): 37.5 ± 0.2 °C; pCO2 ([7]; Treated, mean ± sem): 37.8 ± 1.3; pH ([7]; Treated, mean ± sem): 7.379 ± 0.015; pO2 ([7]; Treated, mean ± sem): 142.3 ± 10.0; effect on physiological parameters such as blood pressure, heart rate, body temperature and blood gases ([7]; continuous infusion): no apparent effect; reduction of infarct volume ([7]; infusion 250 μg/kg/min for 15 min then 50 μg/kg/min, vs control): 52%; infarct volume ([7]; treated, n=8, control 139±31 (n=7), p=0.05): 71±28 mm^3
CCCCCCCn1cnc2c1N=CNCC2(C)O (stereo not shown) [compound 1b, 3-heptyl-8-methylcoformycin aglycone] | – | 12 | 36 | 6 | –
OC[C@H]1O[C@@H](n2cnc3c2NC=NC[C@H]3O)C[C@@H]1O [deoxycoformycin] | – | – | – | – | inhibition of AMPDA [5]: 1000 nM
O=C(O)C(CCCCn1cnc2c1NC=NCC2O)Cc1ccccc1 (stereo not shown) [compound 1j, 3-(5'-carboxy-6'-phenylhexyl)coformycin aglycone] | 0.045 ± 0.01 | > 200 | – | – | –
CC1=Nc2c(ncn2CCCc2ccccc2C)C(O)CN1 (stereo not shown) [compound 1g, 5-methyl-3-(3'-(2"-methylphenyl)propyl)coformycin aglycone] | – | > 100 | 11 | > 150 | –
O=C(O)c1cc(CCn2cnc3c2N=CNCC3O)c2ccccc2c1 (stereo not shown) [compound 1p, 3-(2'-(3"-carboxynaphthyl)ethyl)coformycin aglycone] | – | > 1000 | 0.02 | > 850K | –
CCCOc1ccc(CCCn2cnc3c2N=CNCC3O)cc1 (stereo not shown) [compound 1i, 3-(3'-(4"-propoxyphenyl)propyl)coformycin aglycone] | – | 0.006 | 3.6 | 0.03 | –
